Experimental data taken from patent US5494820A, “Streptomyces braegensis strain and its cultivation in a process for producing C9 -desoxo-FK-520” (Pfizer Inc., priority 1994, dated 1996).

Key:
[1] = tested on: pathogenic filamentus fungal organisms; assay: Antimicrobial activity (general statement)
human FK-binding protein = assay: Inhibition of rotamase activity of FK-binding protein; assay type: biochemical
mouse T lymphocytes = assay: Immunosuppressive activity (proliferation of T lymphocytes stimulated with ionomycin plus PMA, tritiated thymidine uptake); assay type: cell-based, mouse (C57BI/6); details: general statement; no value given
Protocol: A positive sample in this assay will inhibit-T-cell proliferation, as indicated by reduced tritiated thymidine uptake.
Spleens from C57BI/6 mice are taken under sterile conditions and gently dissociated in ice-cold RPMI 1640 (trademark) culture medium (GIBCO (trademark)) supplemented with 10% heat-inactivated fetal calf serum (GIBCO (trademark)). Cells are pelleted by centrifugation at 1500 rpm for 8 minutes. Contaminating red cells are removed by treating the pellet with ammonium chloride lysing buffer (GIBCO (trademark)) for 2 minutes at 4° C. Cold medium is added and cells are again centrifuged at 1500 rpm for 8 minutes. […]
Purified T lymphocytes are resuspended at 10^6 cells/ml in complete culture medium composed of RPMI 1640 (trademark) medium with 10% heat-inactivated fetal calf serum, […] glutamine, 1 mM sodium pyruvate, 20 µm 2-mercaptoethanol and 50 μg/ml gentamicin. […] The proliferation of T lymphocytes is assessed by measurement of tritiated […] incorporation. […] Radioactivity of filter discs corresponding to individual wells is measured by standard liquid scintillation counting method (Beta plate counter). Mean counts per minute of replicate wells are calculated and the results expressed as percent inhibition of tritiated thymidine uptake (proliferation) as follows: [formula]

CCC1C=C(C)CC(C)CC(OC)C2OC(O)(CC(=O)N3CCCCC3C(=O)OC(C(C)=CC3CCC(O)C(OC)C3)C(C)C(O)CC1=O)C(C)CC2OC (stereo not drawn) [compound of the formula I, C9 -desoxo-FK-520]
antimicrobial activity [1]: has antimicrobial activity
inhibition of the rotamase activity of human FK-binding protein (human FK-binding protein): inhibits the rotamase activity of human FK-binding protein
immunosuppressive activity (mouse T lymphocytes): has immunosuppressive activity
